Among the data in patent publication EP1505064A1, “2-Aminopyrimidine derivatives” (Bayer HealthCare AG, priority 2003, dated 2005) are IC50 values, retold here.

Structures can show the parent of a compound that is named as a salt. Where only a bound is given, the exact number is not on record here.

Sequence of human H4 (Q9H3N8 whole entry): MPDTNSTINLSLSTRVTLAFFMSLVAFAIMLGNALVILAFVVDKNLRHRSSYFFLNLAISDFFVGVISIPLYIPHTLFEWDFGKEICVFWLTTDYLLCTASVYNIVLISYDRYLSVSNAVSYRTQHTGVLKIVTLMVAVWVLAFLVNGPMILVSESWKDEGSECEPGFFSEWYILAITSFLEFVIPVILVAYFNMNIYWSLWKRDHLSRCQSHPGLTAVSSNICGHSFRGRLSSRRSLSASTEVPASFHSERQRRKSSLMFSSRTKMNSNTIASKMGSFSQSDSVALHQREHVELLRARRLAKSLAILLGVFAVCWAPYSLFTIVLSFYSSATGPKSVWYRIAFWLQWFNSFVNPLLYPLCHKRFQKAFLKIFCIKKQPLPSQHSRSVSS

For this assay, the target named is human H4 (Homo sapiens, UniProt Q9H3N8). Put plainly: Calcium mobilization in CHO cells transfected with human H4 (Assay 1). It is filed as cell-based. The settings on record: calcium mobilization induced by 100 nM histamine in CHO-H4 cells; compounds at purity of about 40 to 90%; read-out: Activity Class. The protocol:
[Calcium Mobilization in CHO cells transfected with human H4] (Assay1)
A fusion construct consisting of the n-terminal part of H4 and the C-terminal part of the G protein Gα 6 was transfected into CHO cells containing the aequorin-controlled luciferase gene (CHOAQLuci cells). Recombinant clones showing aequorin luminescence after the addition of 1 µM histamine were isolated. Starting with three independent primary cell clones three sets of tertiary clones were generated by two successive rounds of limiting dilution. Analysis of the primary clones as well as each subcloning by limiting dilution was monitored by "clone-pool analysis" comparing H4-transfected to mock-transfected (expression vector without H4 receptor cDNA) clones.
CHO-H4 cells were seeded at 2 x 10^4 cells per well in Biocoat poly-D-Lysine 96 well black/clear plates (BECTON DICKINSON, Franklin Lakes, US) in D-MEM/F12 medium supplemented with 10% FCS and 400 µg/ml Geneticin (Invitrogen GIBCO, Carlsbad, US) and 2 mM butylrate for O/N. The medium was removed and cells were loaded with 1 µM Fluo-3 (Molecular Probes, Eugene, USA) in loading solution (0.1% BSA, 20mM HEPES Hank's Buffer, 1mM probinecid) for 1 h. The loading buffer was removed and exchanged for fresh loading buffer. Cells were pretreated with various concentrations of test compounds and subjected to calcium mobilization measurement induced by 100 nM histamine by using FDSS6000.
Assay results in Assay 1 are shown in Examples and tables of the Examples below. The data corresponds to the compounds as yielded by solid phase synthesis and thus to levels of purity of about 40 to 90%. For practical reasons, the compounds are grouped in four classes of activity as follows: A IC50 20nM < B IC50 100nM C < IC50 500nM D
Turning to `CNC1CCN(c2cc(-c3ccccc3)nc(N)n2)C1` (stereo not drawn) [Example 1, 4-[3-(Methylamino)pyrrolidin-1-yl]-6-phenylpyrimidin-2-amine trihydrochloride], the IC50 was under 0.02 µM.

For `CNC1CCN(c2cc(-c3cccc(C#N)c3)nc(N)n2)C1` (stereo not drawn) [Example 2, 3-{2-Amino-6-[3-(methylamino)pyrrolidin-1-yl]pyrimidin-4-yl}benzonitrile trihydrochloride], the IC50 lay in the range of 0.02 to 0.1 µM.

As for `Nc1nc(-c2ccccc2)cc(N2CCC(N)C2)n1` (stereo not drawn) [Example 3, 4-(3-aminopyrrolidin-1-yl)-6-phenylpyrimidin-2-amine trihydrochloride], the IC50 lay within 0.02 to 0.1 µM.

As for `CN[C@@H]1CCN(c2cc(-c3cccc([N+](=O)[O-])c3)nc(N)n2)C1` [Example 6, 4-[(3R)-3-(methylamino)pyrrolidin-1-yl]-6-(3-nitrophenyl)pyrimidin-2-amine trihydrochloride], the IC50 is under 0.02 µM.

Turning to `CN[C@H]1CCN(c2cc(-c3cccc([N+](=O)[O-])c3)nc(N)n2)C1` [Example 7, 4-[(3 S)-3-(methylamino)pyrrolidin-1-yl]-6-(3-nitrophenyl)pyrimidin-2-amine trihydrochloride], the IC50 was 0.1 to 0.5 µM.

On to `CN[C@H]1CCN(c2cc(-c3ccccc3)nc(N)n2)C1` [Example 8, 4-[(3S)-3-(methylamino)pyrrolidin-1-yl]-6-phenylpyrimidin-2-amine trihydrochloride], for which the IC50 lay in the range of 0.02 to 0.1 µM.
